For six molecules, EC50 results are on record in patent US11530205B2, “GLP-1 receptor modulators” (RECEPTOS LLC, priority 2017, dated 2022).

The target of the experiment is T1, Human GLP-1R (Homo sapiens, UniProt P43220).
T1 construct: expressed in transfected cells; host or cells: CRE-bla CHO-K1 (Chinese hamster ovary) cells
T1 sequence (P43220 24-463): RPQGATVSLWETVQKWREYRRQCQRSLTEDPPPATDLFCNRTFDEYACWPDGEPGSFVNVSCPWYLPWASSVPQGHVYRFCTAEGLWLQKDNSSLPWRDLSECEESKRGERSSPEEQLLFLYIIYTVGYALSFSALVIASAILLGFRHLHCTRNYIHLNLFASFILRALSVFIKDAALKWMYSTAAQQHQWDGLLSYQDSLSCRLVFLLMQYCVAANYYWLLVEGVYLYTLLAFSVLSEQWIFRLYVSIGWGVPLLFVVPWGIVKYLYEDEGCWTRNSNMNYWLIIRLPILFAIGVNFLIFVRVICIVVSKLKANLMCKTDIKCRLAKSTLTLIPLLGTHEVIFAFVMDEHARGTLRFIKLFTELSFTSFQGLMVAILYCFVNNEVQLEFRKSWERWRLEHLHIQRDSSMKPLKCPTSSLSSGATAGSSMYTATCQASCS
Put plainly: EC20 GLP-1(9-36) PAM cAMP assay: dose response of compound in the presence of fixed concentration of GLP-1(9-36). In kind it is cell-based. The conditions noted are these: Human GLP-1R CRE-bla CHO-K1 cells, 60 nM GLP-1(9-36), 30 minutes at 37° C. Here is the method:
EC20GLP-1(9-36) PAM cAMP Assay: Dose Response of Compound in the Presence of Fixed Concentration of GLP-1 (9-36)
Human GLP-1R CRE-bla CHO-K1 cells were cultured in growth medium (DMEM-High glucose, 10% dialyzed FBS, 0.1 mM NEAA, 25 mM Hepes, 100 U/mL penicillin/100 μg/mL streptomycin, 5 μg/mL Blasticidin, 600 μg/mL Hygromycin), trypsinized and plated in suspension into 384-well white flat bottom plates at 5000 cells/well in 12 μL assay buffer (Hank's Balanced Salt Solution, 10 mM Hepes, 0.1% BSA, pH 7.4). Each compound at a 5× concentration was diluted to a final concentration range of 10 to 0.01 μM (11 points) in assay buffer containing 1.5 mM IBMX and 4% DMSO. GLP-1(9-36) was diluted from 4.2 μM (30 x) to a final assay concentration of 60 nM in assay buffer containing 1.5 mM IBMX and 4% DMSO. Each compound concentration (5×) was added (3 μL), followed by 0.5 μL of GLP-1(9-36) and cells incubated for 30 minutes at 37° C. The peptide was added to the wells using siliconized tips. The reaction was stopped and levels of cAMP were quantified using the DiscoverX HitHunter cAMP kit according to the manufacturer's instructions and luminescence was detected using a SpectraMax M5 Multi-Mode Microplate reader. Luminescence was converted to total cAMP using a cAMP standard curve and data were analyzed by non-linear regression to determine the EC50 and Emax for each compound.
For the molecule `CC[C@H]1CC[C@H](C2CC=C(c3cnc(-c4ccc(CN(CC(=O)N5CC[C@H](C(=O)O)C5)C(=O)c5ccc(NC(=O)Cc6ccc(OC)cc6C(F)(F)F)cc5)cc4)nc3)CC2)CC1` (stereo partly drawn) [Compound 15], the 50% effective concentration (EC50) is less than 800 nM.
`COc1ccc(CC(=O)Nc2ccc(C(=O)N(CC(=O)O)Cc3ccc(-c4ncc(C5=CCC(C(C)(C)C)CC5)cn4)cc3)cc2)c(C(F)(F)F)c1` (stereo not drawn) [Compound 77]: the EC50 was in the range of 2500 to 5000 nM.
Turning to `COc1ccc(CC(=O)Nc2ccc(C(=O)N(CC(=O)O)Cc3ccc(-c4cnc(C5=CCC(C(C)C)CC5)cn4)cc3)cc2)cc1` (stereo not drawn) [Compound 88], the EC50 was in the range of 800 to 2500 nM.
`CC[C@H]1CC[C@H](C2CC=C(c3cnc(-c4ccc(CN(CC(=O)O)C(=O)c5ccc(NC(=O)CCc6ccc(OC)cc6)cc5)cc4)nc3)CC2)CC1` (stereo partly drawn) [Compound 93]: the EC50 is less than 800 nM.
To `CC[C@H]1CC[C@@H]([C@@H]2CC=C(c3cnc(-c4ccc(CN(CC(=O)O)C(=O)CNC(=O)Cc5ccc(OC)cc5)cc4)nc3)CC2)CC1` [Compound 118] belongs 800 to 2500 nM; to `CC[C@H]1CC[C@H](C2CC=C(c3cnc(-c4ccc(CN(CC(=O)O)C(=O)CCC(=O)CN5c6cccc7cccc(c67)S5(=O)=O)cc4)nc3)CC2)CC1` (stereo partly drawn) [Compound 127], less than 800 nM.

By EC50 is commonly meant the concentration needed to bring the measured effect to its halfway point.
